Test results: patent US12678475B2, “Compositions and methods for treating and preventing lung disease” (ARIZONA BOARD OF REGENTS ON BEHALF OF THE UNIVERSITY OF …, priority 2016, dated 2026)

Experiments:
[1] = system: human airway epithelial cells; experiment: IL-13 exposure of airway epithelial cells from asthmatics at air liquid interface, MUC5AC by RT-PCR; type: cell-based
Procedure: Airway epithelial cells at ALI from two asthmatic subjects exposed to IL-13 alone, and IL-13 plus SP-A2 peptide that include the Gln at position 223 in the lectin domain (2230). Full-length oligomeric SP-A that is homozygous at position 223Q/Q was used as a positive control. After 48 hours incubation, MUCSAC expression was determined by RT-PCR
Experiments were conducted wherein airway epithelial cells from two subjects with asthma not on controller therapy were cultured at air liquid interface for two weeks. In separate conditions the cells were exposed to each peptide at 50 ng/ml for 30 minutes followed by IL-13 at 50 ng/ml and incubated for 48 hours. Cells were placed in Trizol MUCSAC was determined by RT-PCR. […] The 10 AA length is especially useful as a therapeutic agent as its size renders it able to be packaged into an inhaler type of device for delivery to the airways.
Regarding FIG. 8, human bronchial epithelial cells obtained from a well-phenotyped asthmatic were grown at an ALI for two weeks prior to experimentation. For challenge, each of the SP-A test peptides (50 μg/ml) were added to the apical compartment at least 30 minutes prior to IL-13 challenge. Muc5AC was analyzed by RT-PCR from cell lysates and analyzed as a fold over the control samples. Peptide sequences: 20-mer […] (SEQ ID NO: 8), peptide 1 PAGRGKEQCV (SEQ ID NO: 2), peptide 2 EMYTDGQWND (SEQ ID NO: 3), peptide 3 KEQCVEMYTD (SEQ ID NO: 4) FL=full length oligomeric SP-A that is extracted from lavage of alveolar proteinosis individuals.

[2] = system: SP-A deficient mice challenged in the HDM model; experiment: HDM model in SP-A deficient mice, therapeutic SP-A peptides; type: in vivo; settings: peptide given 24 hrs after the last challenge; for eosinophilia in the lavage compartment: compared to vehicle treated mice (FIG. 3A); for mucin production: compared to vehicle treated mice (FIG. 3B)
Procedure: FIGS. 3A and 3B show the analysis of inflammation in mice that receive “therapeutic” SP-A peptides in the HDM model. Mice were sensitized and challenged in the HDM model according to common methods. Twenty-four hours after the last challenge, mice received either vehicle, a 20-mer or a 10-mer that encompassed the active site containing 223Q. BAL cellularity (left panel) and mucin production (right panel) were assessed 7 days post challenge to assess the role of SP-A on allergic airways resolution. […] Both 223Q and 223K mice are somewhat protected in the acute phase of this model.

[3] = system: WT C57BL/6 mice, HDM model; experiment: Methacholine-induced airway hyper-responsiveness (AHR) in HDM model; type: in vivo; settings: 25 mg/mouse in 40 ml saline oropharyngeal 24 h after each challenge, 3-5 days post HDM challenge, vs vehicle
Procedure: Twenty-four hours after each challenge, mice received either scrambled vehicle or a 10-mer SP-A peptide (KEQCVEMYTD (SEQ ID NO: 4)) (arrow) that encompassed the active site containing 223Q (at a physiologic dose of […] delivered in […] of sterile saline) by oropharyngeal instillation. Pulmonary function tests were conducted 3-5 days post HDM challenge to determine if the SP-A peptide could protect from methacholine-induced airway hyper-responsiveness (AHR). Mice that received the SP-A peptide after HDM challenge had attenuated: overall resistance (Rrs) and central airways resistance (Rn) as compared to HDM challenged mice that received vehicle treatment.

[4] = system: WT C57BL/6 mice challenged with IL-13; experiment: Methacholine-induced airway hyper-responsiveness (AHR) in IL-13 model; type: in vivo; settings: IL-13 model (3.9 ug IL-13 daily, 3 days); oropharyngeal 2 h after each challenge; 24 hours post IL-13 challenge; vs vehicle
Procedure: WT C57BL/6 mice were challenged with 3.9 ug of IL-13 (arrow) once a day for 3 consecutive days via oropharyngeal instillation. […] Pulmonary function tests were conducted 24 hours post IL-13 challenge to determine if the SP-A peptide could protect from methacholine-induced airway hyper-responsiveness (AHR). Mice that received the SP-A peptide after HDM challenge had attenuated: overall resistance (Rrs) and central airways resistance (Rn) as compared to HDM challenged mice that received vehicle treatment.

[5] = system: WT C57BL/6 mice, house dust mite (HDM) model; experiment: House dust mite (HDM) model in WT C57BL/6 mice, mucin production and BAL eosinophilia; type: in vivo; settings: WT C57BL/6, HDM days 0, 7, 14; 25 μg/mouse oropharyngeal 24 h after last challenge (FIGS. 5, 6)
Procedure: Regarding FIG. 5, WT C57BL/6 mice were sensitized and challenged in the house dust mite (HDM) model according to standard methods on days 0, 7, 14 (black arrows). Twenty-four hours after the last challenge, mice received either scrambled vehicle or a 20-mer SP-A peptide (dotted arrow) that encompassed the active site containing 223Q (at a physiologic dose of 25 μg/mouse delivered in 40 μl of sterile saline) by oropharyngeal instillation. Lung histological sections were analyzed for mucin production as assessed by PAS stain/scoring to determine if the SP-A peptide could protect from HDM-induced airway mucin production. […] Peptide sequence: […] (SEQ ID NO: 8).
Regarding FIG. 6, WT C57BL/6 mice were sensitized and challenged in the house dust mite (HDM) model according to standard methods on days 0, 7, 14 as shown in FIG. 5 (black arrows). […] Lung histological sections were analyzed for mucin production as assessed by PAS stain/scoring to determine if the SP-A peptide could protect from HDM-induced airway mucin production. […]
Regarding FIG. 7, WT C57BL/6 mice were sensitized and challenged in the house dust mite (HDM) model according to standard methods on days 0, 7, 14 as shown in FIG. 5 (black arrows). […] Bronchoalveolar lavage samples were analyzed for eosinophilia to determine if the SP-A peptide could protect from HDM-induced airway eosinophilia by decreasing eosinophil viability. […]

eosinophils = experiment: In vitro studies with isolated eosinophils; type: cell-based
[6] = airway epithelial cells from asthmatic subjects with allergic or type 2 asthma

| Substance | MUCSAC expression (RT-PCR) ([1]; cells from two asthmatic subjects at ALI, peptide 50 ng/ml 30 minutes, then IL-13 50 ng/ml, 48 hours (FIG. 4)) | eosinophilia in the lavage compartment [2] | mucin production [2] | central airways resistance (Rn) [3] | overall resistance (Rrs) [3] | central airways resistance (Rn) [4] | overall resistance (Rrs) [4] | mucin production (PAS stain/scoring) [5] | IL-6 induced by IL-13 [1, 6] | mucin induced by IL-13 [1, 6] | eosinophil apoptosis (eosinophils) |
| --- | --- | --- | --- | --- | --- | --- | --- | --- | --- | --- | --- |
| KEQCVEMYTD (listed as Homo sapiens) [SEQ ID NO: 4] | attenuates | significantly less eosinophilia | less mucin production | attenuated | attenuated | attenuated | attenuated | – | – | – | – |
| PAGRGKEQCVEMYTDGQWND (listed as Homo sapiens) [SEQ ID NO: 8] | – | significantly less eosinophilia | less mucin production | – | – | – | – | reduce mucin production | – | – | – |
| SP-A: Surfactant protein-A, a secreted lipoprotein complex; full length oligomeric SP-A extracted from lavage of alveolar proteinosis individuals | – | – | – | – | – | – | – | – | attenuates | attenuates | directly stimulates eosinophil apoptosis |
